# What was measured:
# Format in all cases: cell-based, human
# [1] = tested on: HeLa cells; assay: AO/EB double staining; settings: 10 and 25 μM, 24 h
# Method: At 24 h after the plating of HeLa cells in 12-well plates at 5 × 10^4 cell/ml, sulfonamide derivative compounds at concentrations of 10 and 25 μM were added to the plates, and the cells were incubated at 37 °C for 24 h. The cells were then washed with PBS, and released for incubation in a solution including 100 μl (acridine orange (100 µg/ml) and ethidium bromide (100 µg/ml) at room temperature for 5 min. The morphological fluctuations indicating apoptosis were investigated under fluorescent microscopy (Olympus CKX 53, DP73, Tokyo, Japan).
# [2] = tested on: HeLa cells; assay: Mitochondrial membrane potential (JC-1); settings: 0–25 μM
# Method: Mitochondrial membrane potential (MMP) changes appearing in the intrinsic pathway of mitochondria were spectrophotometrically detected. MMP was measured in a Spectramax, M5 fluorimetric device, at wavelengths of 490 nm (excitation), 530 nm(emission) according to the fluorometric Mitochondria Staining Kit (Sigma-Aldrich, Schnelldorf, Germany, CS0390) protocol.
# [3] = tested on: HeLa cells; assay: Western blot of cleaved caspases 3, 8, 9 and cleaved PARP; settings: most notably 10 μM, 24 h
# Method: The cells were seeded on 6 cm^2 cell culture dishes, and treated with sulfonamide compounds, at doses of 10 and 25 μM, for 24 h. The cells were then washed with cold PBS, which was followed by lysis with RIPA lysis buffer (10 mM Tris-HC1 pH =8, 1 mM EDTA, 1 mM EGTA, 140 mM NaCl, 1% TritonX-100, 0.1 SDS, 0.1% Sodium deoxycholate), 1X phosphates and protease inhibitor (Santa Cruz Biotechnology, Dallas, USA). The acquired supernatants from the lysates which were centrifuged at 12000 g, +4 °C, for 10 min, were transferred to new tubes. Protein concentration was detected using the protein assay kit BCA (Thermo Fisher Scientific, Waltham, MA). After a 30-min period of protein (50 µg) standing in 10% SDS-PAGE gel at 50 V and at 80 V for 3 h, those were blotted to PVDF membrane at 70 V for 5 min (Bio-Rad Turbo Transfer System, Segrate (MI), Italy). After embedding in 1X TBST (12,1 gr Tris, pH 7.5, 70 gr NaCl, 0.1% Tween-20) containing 5% dry milk or 5% BSA, the primer monoclonal antibodies Cleaved Caspase 3,8,9, Cleaved PARP (Millipore) CA IX and Beta-actin, were applied to the membrane and left overnight, which was followed by washing with 1X TBS-T and an incubation period with secondary antibodies of HRP rabbit (Cell signaling, Danvers, MA, USA) or mouse (1/10.000) for 60 min. […]
# [4] = tested on: PNT-1A; assay: WST-1 cytotoxicity, PNT-1A normal cells; settings: PNT-1A normal cell
# Method: (§1) Cancer and normal cell lines were purchased from ATCC and stored in liquid nitrogen. HT-29 (colon adenoma cancer), HeLa (cervix adenoma cancer cell), MDA-MB-231 (breast adenoma cancer cell) and HEK-293 (embryonic kidney epithelial cell), PNT-1A (normal prostate cells) cell lines were incubated in DMEM: F-12 and RPMI-1640, including 10% Foetal Bovine Serum (FBS), 100 μg/mL streptomycin/100 IU/mL penicillin, at 37 °C in an incubator containing 5% CO2, 95% air in a humid atmosphere.
# (§2) The cytotoxic effects of the substances were evaluated with WST-1 kits (Roche, Germany) in accordance with the manufacturer’s protocols. The cells were plated on 96-well plates (10^4 cells in each well). After incubation for 24 h, the media were discarded and the substances and Cisplatin as the control drug, at doses of 0, 2.5, 5, 10, 25, 50, 100, and 200 μM, were incubated for 24, 48, and 72 h. WST-1 reactive of 10 µl was added to all wells. Following 4 h incubation, the measurements were taken on a plate reader (Spectramax M5) at wavelengths of 450 and 630 nm. Graphs were then created and the IC50 value of each substance was calculated.
# [5] = tested on: HeLa cells; assay: Annexin V-FITC/PI flow cytometry apoptosis; settings: from 10 μM, 24 h
# Method: The apoptotic effect of the substances was explored with the commercial FITC Annexin V Apoptosis Detection Kit I (BD Biosciences, New Jersey, USA) according to the manufacturer’s protocol. The cells were plated on 6-well plates (5 × 10^5 cells/well), and following 24 h incubation, sulfonamide compounds at concentrations of 10 and 25 μM were administered, followed by incubation for 24 h. The cells were raised by trypsin handling, and transferred into new tubes within 1X binding buffer, as 1 × 10^6 in each tube, which was incubated for 15 min at room temperature. 5 μL of fluorochrome-conjugated Annexin V and 5 μL of Propidium Iodide dyes were then added. 100 μl 1X binding buffer was added to the cells, and they were then centrifuged at 1200 rpm, for 5 min. Finally, the cells were analysed in flow cytometry (BD Via, New Jersey, USA).
# [6] = tested on: HeLa cells; assay: Intracellular ROS detection; settings: 0–25 μM
# Method: Intracellular free radicals were measured using the Cellular Reactive Oxygen Species Detection Assay commercial kit (Red Fluorescence, Abcam, Cambridge-UK, 186027). In this kit, a fluorescence probe that is permeable to the cell is used. When the probe reacts with ROS, it produces red fluorescence. The process was applied following kit protocol. The cells were plated on black plates, as 3 × 10^4 in 100 µl, and incubated for 24 h. Sulfonamide compounds in PBS were administered at doses of 0–25 μM and incubated at 37 °C in an atmosphere of 5% CO2 for 1 h (protected from light). After the compounds were poured out, the wells were filled with 100 µl of ROS Deep Red Working Solution and incubated at 37 °C in an atmosphere of 5% CO2 for 1 h. A fluorometry device (Spectramax, M5) Ex/Em = 650/675 nm (cut off = 665 nm) was used to take the measurements.
# [7] = tested on: MDA-MB-231; assay: WST-1 cytotoxicity, MDA-MB-231
# Method: as §1, §2
structure (smiles),measurement,setting,value
NS(=O)(=O)c1ccc(CCN=Cc2cc(Cl)ccc2O)cc1 [Compound A-1],apoptosis by morphology (AO/EB),[1],presence of apoptosis in HELA cells treated with A1 has been confirmed morphologically
same,mitochondrial membrane potential (MMP),[2],dose-dependent decrease in MMP
same,"cleaved caspase 3, 8, 9 and c-PARP protein levels",[3],significant increase
same,IC50,[4]; 24 h,389 µM
same,IC50,[4]; 48 h,110 µM
same,IC50,[4]; 72 h,203 µM
same,early apoptosis,[5],48.7%
same,intracellular ROS,[6],increase the intracellular ROS in HeLa cells in a dose-dependent manner
same,IC50,"[7]; MDA-MB-231, 24 h",293 µM
same,IC50,"[7]; MDA-MB-231, 48 h",65.9 µM
same,IC50,"[7]; MDA-MB-231, 72 h",37.3 µM

# — publication PMC6211230, “Assessment of the antiproliferative and apoptotic roles of sulfonamide carbonic anhydrase IX inhibitors in HeLa cancer cell line” (Journal of Enzyme Inhibition and Medicinal Chemistry, 2018)
